In patent publication US7538107B2, “Oxazinan-2-one derivatives useful as PR modulators” (Wyeth, priority 2006, dated 2009):

What was measured:
progesterone receptor = molecular target: T1, progesterone receptor (Homo sapiens, UniProt P06401); experiment: Effects of progestins and antiprogestins on alkaline phosphatase activity in T47D cells; assay type: cell-based; conditions: antagonist mode in the presence of 1 nM progesterone, 24 h, read-out: T47D Alkaline Phosphatase Activity IC50 (nM) or % inhibition
T1 construct: determining a compound's effect on alkaline phosphatase activity in T47D cells; endogenous in cells; host or cells: T47D cells
T1 sequence (P06401 1-933): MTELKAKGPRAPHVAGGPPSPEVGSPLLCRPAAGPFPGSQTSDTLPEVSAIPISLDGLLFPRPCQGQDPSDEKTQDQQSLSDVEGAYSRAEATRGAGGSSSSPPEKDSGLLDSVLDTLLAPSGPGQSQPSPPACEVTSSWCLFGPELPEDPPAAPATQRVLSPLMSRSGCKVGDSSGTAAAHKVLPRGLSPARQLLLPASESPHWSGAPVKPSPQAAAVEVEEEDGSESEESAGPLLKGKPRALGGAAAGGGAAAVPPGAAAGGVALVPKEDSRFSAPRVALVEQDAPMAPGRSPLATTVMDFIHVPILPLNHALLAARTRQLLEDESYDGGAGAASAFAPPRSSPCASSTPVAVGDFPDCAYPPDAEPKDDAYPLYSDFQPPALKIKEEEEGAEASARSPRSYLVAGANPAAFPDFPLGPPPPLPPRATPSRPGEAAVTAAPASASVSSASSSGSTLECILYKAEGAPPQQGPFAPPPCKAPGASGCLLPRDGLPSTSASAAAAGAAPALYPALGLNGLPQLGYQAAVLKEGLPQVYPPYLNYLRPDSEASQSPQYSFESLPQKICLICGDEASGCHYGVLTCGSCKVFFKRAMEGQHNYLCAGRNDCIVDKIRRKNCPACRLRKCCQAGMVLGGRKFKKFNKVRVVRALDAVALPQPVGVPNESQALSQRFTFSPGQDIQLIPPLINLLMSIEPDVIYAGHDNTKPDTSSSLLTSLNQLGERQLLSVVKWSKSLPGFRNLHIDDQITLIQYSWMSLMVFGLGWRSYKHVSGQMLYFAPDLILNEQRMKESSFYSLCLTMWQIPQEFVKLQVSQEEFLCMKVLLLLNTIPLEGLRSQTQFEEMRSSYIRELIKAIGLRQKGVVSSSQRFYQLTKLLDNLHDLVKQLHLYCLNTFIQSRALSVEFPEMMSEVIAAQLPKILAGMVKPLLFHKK
Description: (1) Effects of Progestins and Antiprogestins on Alkaline Phosphatase Activity in T47D Cells
PURPOSE: To identify progestins or antiprogestins by determining a compound's effect on alkaline phosphatase activity in T47D cells.
Culture Medium: • DMEM:F12 (1:1) (GIBCO, BRL) supplemented with 5% (v/v) charcoal stripped fetal bovine serum (not heat-inactivated), 100 U/mL penicillin, 100 μg/mL streptomycin, and 2 mM the GlutaMax™ reagent (GEBCO, BRL).
Alkaline phosphatase assay buffer: • I. 0.1M Tris-HCl, pH 9.8, containing 0.2% the Triton® X-100 reagent • II. 0.1M Tris-HCl, pH 9.8, containing 4 mM p-nitrophenyl phosphate (Sigma). B. Cell Culture and Treatment:
Frozen T47D cells were thawed in a 37° C. water bath and diluted to 280,000 cells/mL in culture medium. To each well in a 96-well plate (Falcon, Becton Dickinson Labware), 180 μL of diluted cell suspension was added.
Twenty μL of reference or test compounds diluted in the culture medium was then added to each well. […]
For reference and test compounds, a dose response curve was generated for dose (X-axis) vs. the rate of enzyme reaction (slope) (Y-axis). […] EC50 or IC50 values were calculated from the retransformed values. […]
Progesterone and trimegestone were reference progestins and RU486 was the reference antiprogestin. All reference compounds were run in full dose response curves and the EC50 and IC50 values were calculated.

melting point [°C]	IC50 (progesterone receptor) [nM]	Compound
197 to 199		C[C@@H]1COC(=O)N1c1nc(-c2ccc(Br)cc2)cs1 [Example 1, (4R)-3-[4-(4-Bromophenyl)-1,3-thiazol-2-yl]-4-methyl-1,3-oxazolidin-2-one]
114 to 116		CCC[C@@H]1COC(=O)N1c1nc(-c2ccc(Br)cc2)cs1 [Example 2, (4R)-3-[4-(4-Bromophenyl)-1,3-thiazol-2-yl]-4-propyl-1,3-oxazolidin-2-one]
225 to 227	238	O=C1OCCCN1c1nc(-c2ccc(Br)cc2)cs1 [Example 3, 3-[4-(4-Bromophenyl)-1,3-thiazol-2-yl]-1,3-oxazinan-2-one]
169 to 171	1370	CC1(C)COC(=O)N(c2nc(-c3ccc(Br)cc3)cs2)C1 [Example 4, 3-[4-(4-Bromophenyl)-1,3-thiazol-2-yl]-5,5-dimethyl-1,3-oxazinan-2-one]
